In patent publication EP0976707A1, “CYCLOALKYL BENZYL ETHER COMPOUNDS” (Nissan Chemical Industries, Ltd., priority 1997, dated 1998):

Columns and labels:
Assay type in all cases: in vivo
Monochoria vaginalis [1] = experiment: Comparative test, post-emergence treatment under submerged conditions (as Test Example 2); set-up: key: 0 indicating no influence; 5 indicating complete withering; details: three weeks after the treatment, rating 0-5
Source text: (§1) [Test Example 2] Herbicidal effect test by post-emergence treatment to weeds under submerged conditions
(§2) In a 1/10,000-are Wagner pot was filled alluvial soil, which was mixed with water introduced therein to establish submerged conditions at a water depth of 4 cm. Respective seeds of Echinochloa crus-galli var. crus-galli, Monochoria vaginalis, Rotala indica and Scirpus juncoides were sowed mixedly in the pot and then 2.5 leaf stage rice seedlings were transplanted. The pot was placed in a greenhouse at 25 to 30°C to grow the plant. When Echinochloa crus-galli var. crus-galli, Monochoria vaginalis, Rotala indica and Scirpus juncoides reached 1 to 2 leaf stage and the rice plant reached 4 leaf stage, the compound of the present invention prepared according to one of Composition Examples was applied onto the water surface at a predetermined application rate. Three weeks after the treatment, the herbicidal effect on each kind of the weeds was examined in accordance with the criteria of judgment in Test Example 1.
(§3) [drawing 170] (diastreomer-(1) and (2)) involved in the claims of WO 97/02258 and the compound No. A-5 of the present invention were carried out in manners similar to that in test example 1 and 2.

Scirpus juncoides [2] = experiment: as above; set-up: key: 0 indicating no influence; 5 indicating complete withering; details: three weeks after the treatment, rating 0-5
Source text: as §1, §2, §3

[3] = tested on: Echinochloa crus-galli var. crus-galli; experiment: as above; set-up: key: 0 indicating no influence; 5 indicating complete withering; details: three weeks after the treatment, rating 0-5
Source text: as §1, §2, §3

Rotala indica [4] = experiment: as above; details: three weeks after the treatment, rating 0-5
Source text: as §1, §2, §3

Monochoria vaginalis [5] = experiment: Comparative test, pre-emergence treatment under submerged conditions (as Test Example 1); set-up: key: 0 indicating no influence; 5 indicating complete withering; details: three weeks after the treatment, rating 0-5
Source text: (§4) [Test Example 1] Herbicidal effect test by pre-emergence treatment to weeds under submerged conditions
(§5) In a 1/10,000-are Wagner pot was filled alluvial soil, which was mixed with water introduced therein to establish submerged conditions at a water depth of 4 cm. Respective seeds of Echinochloa crus-galli var. crus-galli, Monochoria vaginalis, Rotala indica and Scirpus juncoides were sowed mixedly in the pot and then 2.5 leaf stage rice seedlings were transplanted. The pot was placed in a greenhouse at 25 to 30°C to grow the plant. One day after the sowing, the compound of the present invention prepared according to one of Composition Examples was applied onto the water surface at a predetermined application rate. Three weeks after the treatment, the herbicidal effect on the rice plant and each kind of the weeds was examined. There was used five rating evaluation, with 0 indicating no influence and 5 indicating complete withering.
as §3

transplanted rice [6] = experiment: as above; set-up: key: 0 indicating no influence; 5 indicating complete withering; details: pre-emergence treatment to weeds, three weeks after the treatment, rating 0-5
Source text: as §4, §5, §3

Scirpus juncoides [7] = experiment: as above; set-up: key: 0 indicating no influence; 5 indicating complete withering; details: three weeks after the treatment, rating 0-5
Source text: as §4, §5, §3

Rotala indica [8] = experiment: as above; set-up: key: 0 indicating no influence; 5 indicating complete withering; details: three weeks after the treatment, rating 0-5
Source text: as §4, §5, §3

[9] = tested on: Echinochloa crus-galli var. crus-galli; experiment: as above; set-up: key: 0 indicating no influence; 5 indicating complete withering; details: three weeks after the treatment, rating 0-5
Source text: as §4, §5, §3

Monochoria vaginalis [10] = experiment: Herbicidal effect test under submerged conditions, inhibition ratio (Test Example 6); details: Pontederia vaginalis, 504 h; dosage 25 g/ha; live weight of aerial part, three weeks after the treatment; read-out: inhibition ratio (%), C (Monochoria vaginalis)
Source text: (§6) [Test Example 6] Herbicidal effect test under submerged conditions
(§7) In a 1/5,000-are Wagner pot was filled alluvial soil, which was mixed with water introduced therein to establish submerged conditions at a water depth of 4 cm. After seeds of Monochoria vaginalis and Scirpus juncoides were sowed mixedly in the pot, 2.5 leaf stage rice seedlings were transplanted at a depth of 2 cm. On the next day of transplantation of the rice, the compound of the present invention prepared according to one of Composition Examples was applied. Three weeks after the treatment, the live weights of aerial parts of each kind of the weeds and rice were measured and inhibition ratios (%) were obtained according to Test Example 4. In the tables, (E) indicates expected values obtained by the equation of Colby and (F) indicates found values. Left side values and right side values in the column of application rate for each active ingredient indicate corresponding dosages of compounds in the column of compound name.
(§8) Synergistic herbicidal effect of herbicide mixtures will be explained as follows. That is, individual active compounds in many cases may be deficient in their herbicidal activity. In such a case, if the herbicidal activity of two active compounds in combination is higher than the simple sum of the activities of the compounds (expected activity), then this is called synergistic action. The expected activity from the stable combination of two herbicides, can be calculated as follows. (cf. Colby, S. R., Calculation of Synergistic and Antagonistic Reactions of Combination of Herbicides, Weed, vol. 15, pages 20-22 (1967)) E = α + β - ( α · β / 100) [formula] α : Inhibition ratio when herbicide A is applied in a rate of a kg/ha β : Inhibition ratio when herbicide B is applied in a rate of b kg/ha E : Inhibition ratio expected when herbicide A is applied in a rate of a kg/ha and herbicide B is applied in a rate of b kg/ha.

Scirpus juncoides [11] = experiment: as above; details: Schoenoplectiella juncoides, 504 h; dosage 25 g/ha; live weight of aerial part, three weeks after the treatment; read-out: inhibition ratio (%), B (Scirpus juncoides)
Source text: as §6, §7, §8

transplanted rice [12] = experiment: as above; details: dosage 25 g/ha; live weight of aerial part, three weeks after the treatment
Source text: Herbicidal effect test under submerged conditions
In a 1/5,000-are Wagner pot was filled alluvial soil, which was mixed with water introduced therein to establish submerged conditions at a water depth of 4 cm. After seeds of Monochoria vaginalis and Scirpus juncoides were sowed mixedly in the pot, 2.5 leaf stage rice seedlings were transplanted at a depth of 2 cm. On the next day of transplantation of the rice, the compound of the present invention prepared according to one of Composition Examples was applied. […] In the tables, (E) indicates expected values obtained by the equation of Colby and (F) indicates found values.
The expected activity from the stable combination of two herbicides, can be calculated as follows.

In the case of `C=C(C)[C@@H]1C[C@@H]2O[C@]2(C)[C@H](OCc2ccccc2F)C1` [A-5, (1S, 2R, 4S, 6S)-2-(2-fluorobenzyloxy)-4-isopropenyl-1-methyl-7-oxabicyclo[4.1.0]heptane], the “herbicidal effect, C (Monochoria vaginalis)” value (shortened to “herbicidal effect, C”) (Monochoria vaginalis [1]; dosage 12.5 g/ha) is reported as 1, the “herbicidal effect, C” value (Monochoria vaginalis [1]; dosage 50 g/ha) is reported as 4 and the “herbicidal effect, C” value (Monochoria vaginalis [1]; dosage 200 g/ha) is reported as 5. For the same compound, the “herbicidal effect, B (Scirpus juncoides)” value (Scirpus juncoides [2]; dosage 12.5 g/ha) was 1, the “herbicidal effect, B (Scirpus juncoides)” value (Scirpus juncoides [2]; dosage 50 g/ha) was 3 and the “herbicidal effect, B (Scirpus juncoides)” value (Scirpus juncoides [2]; dosage 200 g/ha) was 5. For the same compound, the “herbicidal effect, A (Echinochloa crus-galli var. crus-galli)” value ([3]; dosage 12.5 g/ha) was 1, the “herbicidal effect, A (Echinochloa crus-galli var. crus-galli)” value ([3]; dosage 50 g/ha) was 5 and the “herbicidal effect, A (Echinochloa crus-galli var. crus-galli)” value ([3]; dosage 200 g/ha) was 5. The “herbicidal effect, D (Rotala indica)” value (Rotala indica [4]; dosage 12.5 g/ha) was 1, the “herbicidal effect, D (Rotala indica)” value (Rotala indica [4]; dosage 50 g/ha) was 3 and the “herbicidal effect, D (Rotala indica)” value (Rotala indica [4]; dosage 200 g/ha) was 4. For the same compound, the “herbicidal effect, C” value (Monochoria vaginalis [5]; dosage 12.5 g/ha) was 2, the “herbicidal effect, C” value (Monochoria vaginalis [5]; dosage 50 g/ha) was 5 and the “herbicidal effect, C” value (Monochoria vaginalis [5]; dosage 200 g/ha) was 5. The “herbicidal effect, a (transplanted rice)” value (transplanted rice [6]; dosage 12.5 g/ha) was 0, the “herbicidal effect, a (transplanted rice)” value (transplanted rice [6]; dosage 50 g/ha) was 0 and the “herbicidal effect, a (transplanted rice)” value (transplanted rice [6]; dosage 200 g/ha) was 0. For the same compound, the “herbicidal effect, B (Scirpus juncoides)” value (Scirpus juncoides [7]; dosage 12.5 g/ha) was 2, the “herbicidal effect, B (Scirpus juncoides)” value (Scirpus juncoides [7]; dosage 50 g/ha) was 3 and the “herbicidal effect, B (Scirpus juncoides)” value (Scirpus juncoides [7]; dosage 200 g/ha) was 5. The “herbicidal effect, D (Rotala indica)” value (Rotala indica [8]; dosage 12.5 g/ha) was 2, the “herbicidal effect, D (Rotala indica)” value (Rotala indica [8]; dosage 50 g/ha) was 5 and the “herbicidal effect, D (Rotala indica)” value (Rotala indica [8]; dosage 200 g/ha) was 5. For the same compound, the “herbicidal effect, A (Echinochloa crus-galli var. crus-galli)” value ([9]; dosage 12.5 g/ha) was 5, the “herbicidal effect, A (Echinochloa crus-galli var. crus-galli)” value ([9]; dosage 50 g/ha) was 5 and the “herbicidal effect, A (Echinochloa crus-galli var. crus-galli)” value ([9]; dosage 200 g/ha) was 5. The pest or weed control at 25 g/ha (Monochoria vaginalis [10]) was 59%, the pest or weed control at 25 g/ha (Scirpus juncoides [11]) was 52% and the “inhibition ratio (%), a (transplanted rice)” value (transplanted rice [12]) was 0%.
